From ChEMBL document CHEMBL5291721, “A preclinical secondary pharmacology resource illuminates target-adverse drug reaction associations of marketed drugs” (Nat Commun, 2023) come the findings set out here.

For assay [1], the target named is Kappa-type opioid receptor (Homo sapiens, UniProt P41145).
Assay [2] concerns the target T1, Estrogen receptor (Homo sapiens, UniProt P03372).
T1 sequence (P03372 whole entry): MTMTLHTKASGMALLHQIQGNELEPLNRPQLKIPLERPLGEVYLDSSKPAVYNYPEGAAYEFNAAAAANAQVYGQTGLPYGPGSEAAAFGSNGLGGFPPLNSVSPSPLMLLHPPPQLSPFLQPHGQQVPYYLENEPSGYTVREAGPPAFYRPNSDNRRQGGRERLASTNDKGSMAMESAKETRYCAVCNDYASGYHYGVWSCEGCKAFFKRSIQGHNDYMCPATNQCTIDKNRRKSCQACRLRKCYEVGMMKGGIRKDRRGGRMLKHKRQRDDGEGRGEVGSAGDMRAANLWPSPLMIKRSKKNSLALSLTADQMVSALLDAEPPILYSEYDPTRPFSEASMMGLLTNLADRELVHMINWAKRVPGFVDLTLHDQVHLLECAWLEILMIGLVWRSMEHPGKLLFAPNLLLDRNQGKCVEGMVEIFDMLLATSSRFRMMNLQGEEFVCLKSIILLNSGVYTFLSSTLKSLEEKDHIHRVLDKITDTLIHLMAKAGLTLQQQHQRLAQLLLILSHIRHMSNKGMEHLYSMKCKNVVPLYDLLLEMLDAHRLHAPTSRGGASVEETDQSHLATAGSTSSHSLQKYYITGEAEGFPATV

A further assay addresses T2, Endothelin-1 receptor (Homo sapiens, UniProt P25101).
T2 sequence (P25101 whole entry): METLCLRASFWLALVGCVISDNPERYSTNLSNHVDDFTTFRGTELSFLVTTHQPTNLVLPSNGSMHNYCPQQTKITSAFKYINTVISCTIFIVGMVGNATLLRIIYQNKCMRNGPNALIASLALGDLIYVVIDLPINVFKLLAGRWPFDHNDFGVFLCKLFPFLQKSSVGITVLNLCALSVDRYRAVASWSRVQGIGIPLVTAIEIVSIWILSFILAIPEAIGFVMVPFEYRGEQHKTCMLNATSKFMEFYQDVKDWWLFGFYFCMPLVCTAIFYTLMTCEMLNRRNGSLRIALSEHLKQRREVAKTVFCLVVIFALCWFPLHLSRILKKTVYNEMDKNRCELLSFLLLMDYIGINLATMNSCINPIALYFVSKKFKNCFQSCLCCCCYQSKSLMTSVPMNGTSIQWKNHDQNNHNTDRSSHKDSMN

In assay [3] the target is T3, Prostaglandin G/H synthase 1 (Homo sapiens, UniProt P23219). In kind it is functional.
T3 sequence (P23219 whole entry): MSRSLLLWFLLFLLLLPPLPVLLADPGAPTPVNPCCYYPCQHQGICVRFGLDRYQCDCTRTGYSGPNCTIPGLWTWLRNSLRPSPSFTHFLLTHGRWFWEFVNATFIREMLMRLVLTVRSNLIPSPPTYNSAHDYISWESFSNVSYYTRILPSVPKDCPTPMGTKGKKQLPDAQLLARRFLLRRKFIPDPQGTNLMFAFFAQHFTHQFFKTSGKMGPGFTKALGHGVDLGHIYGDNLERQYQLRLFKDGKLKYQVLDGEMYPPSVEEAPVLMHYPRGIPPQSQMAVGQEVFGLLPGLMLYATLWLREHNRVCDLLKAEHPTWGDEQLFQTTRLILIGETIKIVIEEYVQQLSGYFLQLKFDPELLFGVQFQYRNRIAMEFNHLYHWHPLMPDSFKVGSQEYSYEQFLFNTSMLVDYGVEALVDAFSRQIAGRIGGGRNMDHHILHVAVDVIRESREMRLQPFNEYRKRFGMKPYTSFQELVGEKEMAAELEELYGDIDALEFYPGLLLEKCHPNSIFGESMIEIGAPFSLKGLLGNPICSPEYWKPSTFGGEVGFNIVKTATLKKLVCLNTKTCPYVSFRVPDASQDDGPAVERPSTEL
For assay [4], the target named is T4, Amine oxidase [flavin-containing] A (Homo sapiens, UniProt P21397).
T4 sequence (P21397 whole entry): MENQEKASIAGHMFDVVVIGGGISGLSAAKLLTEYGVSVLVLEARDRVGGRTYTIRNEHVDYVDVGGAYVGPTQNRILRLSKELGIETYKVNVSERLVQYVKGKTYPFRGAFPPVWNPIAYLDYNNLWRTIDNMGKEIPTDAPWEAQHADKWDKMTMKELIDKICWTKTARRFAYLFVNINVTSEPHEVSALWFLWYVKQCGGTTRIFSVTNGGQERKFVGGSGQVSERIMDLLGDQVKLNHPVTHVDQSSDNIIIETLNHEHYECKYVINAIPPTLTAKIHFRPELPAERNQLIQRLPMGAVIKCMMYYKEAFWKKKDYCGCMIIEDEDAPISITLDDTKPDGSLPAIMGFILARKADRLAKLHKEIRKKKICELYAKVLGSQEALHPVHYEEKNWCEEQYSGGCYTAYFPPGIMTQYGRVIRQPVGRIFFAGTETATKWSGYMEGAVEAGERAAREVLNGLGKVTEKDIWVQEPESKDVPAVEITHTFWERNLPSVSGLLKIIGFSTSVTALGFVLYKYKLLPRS
In kind it is functional.

For a further assay, the target named is Melanocortin receptor 4 (Homo sapiens, UniProt P32245).
Sequence of Melanocortin receptor 4 (P32245 whole entry): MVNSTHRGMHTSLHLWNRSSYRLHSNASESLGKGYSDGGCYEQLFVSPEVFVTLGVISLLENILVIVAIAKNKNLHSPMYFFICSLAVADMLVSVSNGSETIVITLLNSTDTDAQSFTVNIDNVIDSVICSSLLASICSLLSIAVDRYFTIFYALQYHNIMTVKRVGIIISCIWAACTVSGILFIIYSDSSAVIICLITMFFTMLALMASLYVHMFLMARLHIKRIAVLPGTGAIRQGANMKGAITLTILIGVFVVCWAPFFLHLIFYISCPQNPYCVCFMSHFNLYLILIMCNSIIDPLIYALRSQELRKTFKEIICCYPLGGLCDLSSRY
The next assay concerns the target T5, Thromboxane A2 receptor (Homo sapiens, UniProt P21731).
T5 sequence (P21731 whole entry): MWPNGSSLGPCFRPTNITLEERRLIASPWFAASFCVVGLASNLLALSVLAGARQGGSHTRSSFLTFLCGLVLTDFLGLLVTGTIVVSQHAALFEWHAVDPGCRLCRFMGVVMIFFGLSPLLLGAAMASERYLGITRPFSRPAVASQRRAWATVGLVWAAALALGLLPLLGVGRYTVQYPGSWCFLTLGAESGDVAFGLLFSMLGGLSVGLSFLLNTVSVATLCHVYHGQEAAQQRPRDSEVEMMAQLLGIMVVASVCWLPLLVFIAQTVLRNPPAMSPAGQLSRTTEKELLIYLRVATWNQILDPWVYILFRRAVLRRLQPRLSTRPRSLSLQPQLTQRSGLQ
Format: functional, cell-based.

The target in assay [5] is T3, Prostaglandin G/H synthase 1. Format: functional. The source holds these as a separate data set.
Assay [6] concerns the target T1, Estrogen receptor. The source holds these as a separate data set.
The target in assay [7] is Sodium-dependent dopamine transporter (Homo sapiens, UniProt Q01959).
Sequence of Sodium-dependent dopamine transporter (Q01959 whole entry): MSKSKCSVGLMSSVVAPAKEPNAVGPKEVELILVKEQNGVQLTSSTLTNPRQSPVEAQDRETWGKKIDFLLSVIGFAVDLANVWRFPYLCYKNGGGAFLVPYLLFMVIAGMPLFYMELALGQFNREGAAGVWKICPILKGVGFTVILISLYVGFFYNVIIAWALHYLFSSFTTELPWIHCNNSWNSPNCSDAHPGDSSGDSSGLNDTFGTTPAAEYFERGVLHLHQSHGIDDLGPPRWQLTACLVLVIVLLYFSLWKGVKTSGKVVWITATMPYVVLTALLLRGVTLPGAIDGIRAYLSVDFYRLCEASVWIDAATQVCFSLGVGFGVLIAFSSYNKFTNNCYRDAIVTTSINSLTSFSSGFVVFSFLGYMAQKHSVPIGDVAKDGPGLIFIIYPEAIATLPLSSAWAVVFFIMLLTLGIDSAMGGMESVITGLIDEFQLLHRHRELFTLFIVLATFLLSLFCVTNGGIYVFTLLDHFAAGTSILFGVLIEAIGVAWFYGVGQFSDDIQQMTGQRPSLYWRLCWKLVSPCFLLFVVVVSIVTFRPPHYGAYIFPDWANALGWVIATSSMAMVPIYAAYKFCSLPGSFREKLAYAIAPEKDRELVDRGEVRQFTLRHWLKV
In assay [8] the target is T6, Alpha-1A adrenergic receptor (Homo sapiens, UniProt P35348).
T6 sequence (P35348 whole entry): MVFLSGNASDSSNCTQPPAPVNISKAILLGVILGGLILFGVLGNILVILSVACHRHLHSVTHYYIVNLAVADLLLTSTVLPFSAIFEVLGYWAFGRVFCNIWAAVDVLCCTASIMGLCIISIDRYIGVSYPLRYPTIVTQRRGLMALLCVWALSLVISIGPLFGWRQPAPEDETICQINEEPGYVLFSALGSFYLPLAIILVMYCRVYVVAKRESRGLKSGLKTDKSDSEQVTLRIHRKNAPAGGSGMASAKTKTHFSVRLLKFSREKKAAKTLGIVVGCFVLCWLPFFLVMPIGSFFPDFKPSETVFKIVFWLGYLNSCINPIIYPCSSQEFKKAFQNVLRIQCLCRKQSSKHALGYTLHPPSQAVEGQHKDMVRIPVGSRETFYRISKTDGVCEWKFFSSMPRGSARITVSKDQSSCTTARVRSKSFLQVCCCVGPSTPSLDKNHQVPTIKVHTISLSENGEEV
Format: functional, cell-based.

Another assay has as its target Mu-type opioid receptor (Homo sapiens, UniProt P35372).
Assay [9] addresses 3',5'-cyclic-AMP phosphodiesterase 4A (Homo sapiens, UniProt P27815). In kind it is functional.
Assay [10] deals with Beta-2 adrenergic receptor (Homo sapiens, UniProt P07550). Format: functional, cell-based.
Sequence of Beta-2 adrenergic receptor (P07550 whole entry): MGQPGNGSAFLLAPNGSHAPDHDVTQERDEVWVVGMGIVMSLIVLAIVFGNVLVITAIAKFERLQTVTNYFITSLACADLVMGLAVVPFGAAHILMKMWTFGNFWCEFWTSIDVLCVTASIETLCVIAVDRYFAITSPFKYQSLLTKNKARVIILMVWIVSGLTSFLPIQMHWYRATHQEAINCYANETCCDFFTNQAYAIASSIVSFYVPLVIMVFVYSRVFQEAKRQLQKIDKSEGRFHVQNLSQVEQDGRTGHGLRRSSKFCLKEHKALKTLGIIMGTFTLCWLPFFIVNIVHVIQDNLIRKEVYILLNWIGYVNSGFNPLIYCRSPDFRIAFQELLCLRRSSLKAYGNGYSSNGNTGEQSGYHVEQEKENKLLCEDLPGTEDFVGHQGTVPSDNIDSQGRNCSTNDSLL

Broadly, the AC50 is the concentration at which the activity in the assay is half-maximal.
Note: assay procedure not described here.

Sequence of Mu-type opioid receptor (P35372 whole entry): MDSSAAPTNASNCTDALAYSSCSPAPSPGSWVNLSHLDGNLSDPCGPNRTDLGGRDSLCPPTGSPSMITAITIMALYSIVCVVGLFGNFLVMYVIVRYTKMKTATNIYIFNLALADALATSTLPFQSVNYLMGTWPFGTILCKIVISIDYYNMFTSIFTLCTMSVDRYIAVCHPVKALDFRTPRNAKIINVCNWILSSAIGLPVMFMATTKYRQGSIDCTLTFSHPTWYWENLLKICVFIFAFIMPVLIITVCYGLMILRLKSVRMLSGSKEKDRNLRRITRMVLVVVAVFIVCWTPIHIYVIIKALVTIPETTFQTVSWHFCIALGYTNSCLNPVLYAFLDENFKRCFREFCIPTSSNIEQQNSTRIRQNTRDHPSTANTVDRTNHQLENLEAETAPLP
Sequence of Kappa-type opioid receptor (P41145 whole entry): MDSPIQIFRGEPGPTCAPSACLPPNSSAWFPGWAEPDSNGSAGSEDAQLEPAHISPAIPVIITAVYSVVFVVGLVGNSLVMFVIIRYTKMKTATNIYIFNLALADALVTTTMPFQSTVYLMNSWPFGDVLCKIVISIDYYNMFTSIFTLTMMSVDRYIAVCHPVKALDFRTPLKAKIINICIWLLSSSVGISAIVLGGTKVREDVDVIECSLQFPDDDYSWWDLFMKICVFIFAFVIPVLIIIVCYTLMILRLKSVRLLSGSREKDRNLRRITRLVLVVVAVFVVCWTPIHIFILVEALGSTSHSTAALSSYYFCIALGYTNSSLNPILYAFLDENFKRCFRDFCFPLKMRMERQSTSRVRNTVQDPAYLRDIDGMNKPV
Sequence of 3',5'-cyclic-AMP phosphodiesterase 4A (P27815 whole entry): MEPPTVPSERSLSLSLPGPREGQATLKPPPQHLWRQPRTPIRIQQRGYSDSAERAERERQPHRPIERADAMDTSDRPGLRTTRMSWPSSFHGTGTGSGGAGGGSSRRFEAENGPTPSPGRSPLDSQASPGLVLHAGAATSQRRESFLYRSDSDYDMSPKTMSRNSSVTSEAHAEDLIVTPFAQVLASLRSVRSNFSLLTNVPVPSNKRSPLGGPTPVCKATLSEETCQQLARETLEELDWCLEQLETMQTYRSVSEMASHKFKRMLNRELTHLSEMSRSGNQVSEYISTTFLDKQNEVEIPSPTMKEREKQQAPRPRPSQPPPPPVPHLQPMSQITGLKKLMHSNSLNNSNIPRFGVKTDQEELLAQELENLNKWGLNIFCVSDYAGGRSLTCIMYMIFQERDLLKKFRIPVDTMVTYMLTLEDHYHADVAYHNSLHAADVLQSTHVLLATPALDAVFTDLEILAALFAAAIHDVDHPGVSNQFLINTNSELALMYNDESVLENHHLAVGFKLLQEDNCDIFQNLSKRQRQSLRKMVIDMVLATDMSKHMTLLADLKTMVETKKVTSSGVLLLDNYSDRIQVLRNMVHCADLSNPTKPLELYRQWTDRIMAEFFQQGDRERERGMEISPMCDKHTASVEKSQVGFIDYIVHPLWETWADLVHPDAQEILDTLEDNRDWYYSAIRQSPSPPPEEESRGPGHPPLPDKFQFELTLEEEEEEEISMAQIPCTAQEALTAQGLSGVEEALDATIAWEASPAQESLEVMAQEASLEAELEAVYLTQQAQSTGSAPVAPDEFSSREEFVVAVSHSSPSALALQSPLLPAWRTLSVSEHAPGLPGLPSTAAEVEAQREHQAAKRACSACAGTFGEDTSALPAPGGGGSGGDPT

For the compound `CN1CCN(C2=Nc3ccccc3Oc3ccc(Cl)cc32)CC1` [LOXAPINE], the concentration at half-maximal activity (AC50) in [1] is 8.24 µM; on Estrogen receptor [2] it was > 30 µM; at Endothelin-1 receptor, > 30 µM; in [3], > 30 µM; in assay [4], > 30 µM; on Melanocortin receptor 4, > 30 µM. Also, the AC50 on Thromboxane A2 receptor was 18.5 µM; in assay [5], > 30 µM; on Estrogen receptor [6], > 30 µM; in [7] it was 23.3 µM; in [8], > 30 µM; on Mu-type opioid receptor it was 13 µM. Moreover, the AC50 in assay [9] and in assay [10] was > 30 µM throughout.

`CCC(=O)O[C@]1(C(=O)SCF)[C@H](C)C[C@H]2[C@@H]3C[C@H](F)C4=CC(=O)C=C[C@]4(C)[C@@]3(F)[C@@H](O)C[C@@]21C` [FLUTICASONE PROPIONATE]: the AC50 (in [1]; at Endothelin-1 receptor; in assay [3]; in [4]; on Melanocortin receptor 4; at Thromboxane A2 receptor) was > 30 µM throughout. Besides, the AC50 (in assay [5]; in assay [7]; in assay [8]; at Mu-type opioid receptor; in assay [9]; in assay [10]) was > 30 µM each time.

`CC(CCc1ccc(O)cc1)NCCc1ccc(O)c(O)c1` (stereo not drawn) [DOBUTAMINE]: the AC50 was 6.86 µM in assay [1]; > 30 µM on Estrogen receptor [2]; > 30 µM at Endothelin-1 receptor; > 30 µM at Melanocortin receptor 4; 0.0054 µM in assay [8]; 1.7 µM on Mu-type opioid receptor. Further, the AC50 in assay [10] is > 30 µM.
